Source: ChEMBL document CHEMBL1130895, “Syntheses of 2-[(3,5-dimethyl-4-methoxypyridyl)alkyl]-benzothiazolidine derivatives as a potential gastric H+/K(+)-ATPase inhibitor” (Bioorg Med Chem Lett, 1998)

What was measured:
[1] = target: Potassium-transporting ATPase (Homo sapiens) (UniProt P20648+P51164); assay: Inhibition of H+/K+ ATPase activity in buffered solution (pH 7.4) at concentration […]; format: protein-complex assay
[2] = target: Potassium-transporting ATPase (Homo sapiens, UniProt P20648); assay: Inhibition of H+/K+ ATPase activity in buffered solution (pH 7.4); format: protein-complex assay

inhibition [1] | IC50 [2] | SMILES
0% |  | CC1(CCc2ccccn2)Nc2ccccc2S1 (stereo not given)
0% |  | COc1c(C)cnc(C2Nc3ccccc3S2)c1C (stereo not given)
24.6% |  | COc1c(C)cnc(CCC2Nc3ccccc3S2)c1C (stereo not given)
61.1% | > 100 µM | COc1c(C)cnc(/C=C/C2(C)Nc3ccccc3S2)c1C (stereo not given)
58.5% |  | COc1c(C)cnc(CC2Nc3ccccc3S2)c1C (stereo not given)
0% |  | COc1c(C)cnc(CCC2(C)Nc3cc(C)ccc3S2)c1C (stereo not given)
0% |  | COc1c(C)cnc(CCC2(C)Nc3ccc(Cl)cc3S2)c1C (stereo not given)
81% | 33 µM | COc1c(C)cnc(CCC2(C)Nc3cc(F)ccc3S2)c1C (stereo not given)
84.4% | 24 µM | COc1c(C)cnc(CCC2(C)Nc3cc(C(F)(F)F)ccc3S2)c1C (stereo not given)
0% |  | COc1c(C)cnc(CCCC2(C)Nc3ccccc3S2)c1C (stereo not given)
17% |  | COc1c(C)cnc(CCC2(C)Sc3ccccc3N2C)c1C (stereo not given)
95% |  | COc1ccc2[nH]c([S+]([O-])Cc3ncc(C)c(OC)c3C)nc2c1 (stereo not given)
19.8% |  | CCOC(=O)[C@@H]1CSC(CCc2ncc(C)c(OC)c2C)N1 (stereo not given in full)
20% | > 100 µM | COc1c(C)cnc(CCC2(C)Nc3cc(Cl)ccc3S2)c1C (stereo not given)
96.4% | 98 µM | COc1c(C)cnc(CCC2(C)Nc3ccccc3S2)c1C (stereo not given)
